Results taken from PubChem BioAssay (NCI).
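Interpolation was linear, between the two tested concentrations surrounding the appropriate level; five concentrations were tested over 48 hours in 96-well plates. TGI is the concentration that stops growth completely.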

Tests used:
Test in all cases: NCI-60 cell line screen, 48 h
786-0 renal = test system: 786-0 renal
A549 NSCLC = test system: A549 NSCLC
ACHN renal = test system: ACHN renal
BT-549 breast = test system: BT-549 breast
CAKI-1 renal = test system: CAKI-1 renal
CCRF-CEM leukemia = test system: CCRF-CEM leukemia
COLO 205 colon = test system: COLO 205 colon
DU-145 prostate = test system: DU-145 prostate
EKVX NSCLC = test system: EKVX NSCLC
HCC-2998 colon = test system: HCC-2998 colon
HCT-116 colon = test system: HCT-116 colon
HCT-15 colon = test system: HCT-15 colon
HL-60(TB) leukemia = test system: HL-60(TB) leukemia
HOP-62 NSCLC = test system: HOP-62 NSCLC
HS 578T breast = test system: HS 578T breast
HT29 colon = test system: HT29 colon
IGROV1 ovarian = test system: IGROV1 ovarian
K-562 leukemia = test system: K-562 leukemia
KM12 colon = test system: KM12 colon
LOX IMVI melanoma = test system: LOX IMVI melanoma
M14 melanoma = test system: M14 melanoma
MALME-3M melanoma = test system: MALME-3M melanoma
MCF7 breast = test system: MCF7 breast
MDA-MB-231 breast = test system: MDA-MB-231 breast
MDA-N = test system: MDA-N
MOLT-4 leukemia = test system: MOLT-4 leukemia
NCI-H226 lung = test system: NCI-H226 lung
NCI-H23 lung = test system: NCI-H23 lung
NCI-H460 lung = test system: NCI-H460 lung
NCI-H522 lung = test system: NCI-H522 lung
NCI/ADR-RES ovarian = test system: NCI/ADR-RES ovarian
OVCAR-4 ovarian = test system: OVCAR-4 ovarian
OVCAR-5 ovarian = test system: OVCAR-5 ovarian
OVCAR-8 ovarian = test system: OVCAR-8 ovarian
PC-3 prostate = test system: PC-3 prostate
RXF 393 renal = test system: RXF 393 renal
SF-268 CNS = test system: SF-268 CNS
SF-295 CNS = test system: SF-295 CNS
SF-539 CNS = test system: SF-539 CNS
SK-MEL-2 melanoma = test system: SK-MEL-2 melanoma
SK-MEL-28 melanoma = test system: SK-MEL-28 melanoma
SK-MEL-5 melanoma = test system: SK-MEL-5 melanoma
SK-OV-3 ovarian = test system: SK-OV-3 ovarian
SN12C renal = test system: SN12C renal
SNB-19 CNS = test system: SNB-19 CNS
SNB-75 CNS = test system: SNB-75 CNS
SR leukemia = test system: SR leukemia
SW-620 colon = test system: SW-620 colon
T-47D breast = test system: T-47D breast
TK-10 renal = test system: TK-10 renal
U251 CNS = test system: U251 CNS
UACC-257 melanoma = test system: UACC-257 melanoma
UACC-62 melanoma = test system: UACC-62 melanoma
UO-31 renal = test system: UO-31 renal
MDA-MB-435 = test system: MDA-MB-435
OVCAR-3 ovarian = test system: OVCAR-3 ovarian
RPMI-8226 leukemia = test system: RPMI-8226 leukemia
HOP-92 NSCLC = test system: HOP-92 NSCLC

CC(=O)C(C)(C)CCC(C)(C)C(C)=O
TGI (786-0 renal): > 100 µM
TGI (A549 NSCLC): > 100 µM
TGI (ACHN renal): > 100 µM
TGI (BT-549 breast): > 100 µM
TGI (CAKI-1 renal): > 100 µM
TGI (CCRF-CEM leukemia): > 100 µM
TGI (COLO 205 colon): > 100 µM
TGI (DU-145 prostate): > 100 µM
TGI (EKVX NSCLC): > 100 µM
TGI (HCC-2998 colon): > 100 µM
TGI (HCT-116 colon): > 100 µM
TGI (HCT-15 colon): > 100 µM
TGI (HL-60(TB) leukemia): > 100 µM
TGI (HOP-62 NSCLC): > 100 µM
TGI (HS 578T breast): > 100 µM
TGI (HT29 colon): > 100 µM
TGI (IGROV1 ovarian): > 100 µM
TGI (K-562 leukemia): > 100 µM
TGI (KM12 colon): > 100 µM
TGI (LOX IMVI melanoma): > 100 µM
TGI (M14 melanoma): > 100 µM
TGI (MALME-3M melanoma): > 100 µM
TGI (MCF7 breast): > 100 µM
TGI (MDA-MB-231 breast): > 100 µM
TGI (MDA-N): > 100 µM
TGI (MOLT-4 leukemia): > 100 µM
TGI (NCI-H226 lung): > 100 µM
TGI (NCI-H23 lung): > 100 µM
TGI (NCI-H460 lung): > 100 µM
TGI (NCI-H522 lung): > 100 µM
TGI (NCI/ADR-RES ovarian): > 100 µM
TGI (OVCAR-4 ovarian): > 100 µM
TGI (OVCAR-5 ovarian): > 100 µM
TGI (OVCAR-8 ovarian): > 100 µM
TGI (PC-3 prostate): > 100 µM
TGI (RXF 393 renal): > 100 µM
TGI (SF-268 CNS): > 100 µM
TGI (SF-295 CNS): > 100 µM
TGI (SF-539 CNS): > 100 µM
TGI (SK-MEL-2 melanoma): > 100 µM
TGI (SK-MEL-28 melanoma): > 100 µM
TGI (SK-MEL-5 melanoma): > 100 µM
TGI (SK-OV-3 ovarian): > 100 µM
TGI (SN12C renal): > 100 µM
TGI (SNB-19 CNS): > 100 µM
TGI (SNB-75 CNS): > 100 µM
TGI (SR leukemia): > 100 µM
TGI (SW-620 colon): > 100 µM
TGI (T-47D breast): > 100 µM
TGI (TK-10 renal): > 100 µM
TGI (U251 CNS): > 100 µM
TGI (UACC-257 melanoma): > 100 µM
TGI (UACC-62 melanoma): > 100 µM
TGI (UO-31 renal): > 100 µM

O=[N+]([O-])/C(C(Cl)=C(Cl)Cl)=C(/Nc1cccc2cccnc12)n1nnc2ccccc21
TGI (786-0 renal): 43.8 µM
TGI (A549 NSCLC): > 100 µM
TGI (ACHN renal): 49.8 µM
TGI (BT-549 breast): 35.8 µM
TGI (CAKI-1 renal): 26.3 µM
TGI (CCRF-CEM leukemia): > 100 µM
TGI (COLO 205 colon): 31.1 µM
TGI (EKVX NSCLC): > 100 µM
TGI (HCC-2998 colon): > 100 µM
TGI (HCT-116 colon): > 100 µM
TGI (HCT-15 colon): 28.1 µM
TGI (HOP-62 NSCLC): 37.5 µM
TGI (HS 578T breast): 33.3 µM
TGI (HT29 colon): 40.5 µM
TGI (K-562 leukemia): > 100 µM
TGI (KM12 colon): 29.5 µM
TGI (M14 melanoma): 25.5 µM
TGI (MALME-3M melanoma): 19.7 µM
TGI (MCF7 breast): 46.3 µM
TGI (MDA-MB-435): 33 µM
TGI (MDA-N): 27.2 µM
TGI (MOLT-4 leukemia): > 100 µM
TGI (NCI-H226 lung): 67.4 µM
TGI (NCI-H23 lung): 34.7 µM
TGI (NCI-H460 lung): > 100 µM
TGI (NCI/ADR-RES ovarian): 53.7 µM
TGI (OVCAR-3 ovarian): 23.7 µM
TGI (OVCAR-4 ovarian): 45.7 µM
TGI (OVCAR-5 ovarian): 58.3 µM
TGI (OVCAR-8 ovarian): 32 µM
TGI (PC-3 prostate): 51.3 µM
TGI (RPMI-8226 leukemia): 83.6 µM
TGI (SF-268 CNS): 37.4 µM
TGI (SF-295 CNS): 42.2 µM
TGI (SF-539 CNS): 38.2 µM
TGI (SK-MEL-2 melanoma): 33.5 µM
TGI (SK-MEL-28 melanoma): 33.5 µM
TGI (SK-OV-3 ovarian): 32.9 µM
TGI (SN12C renal): 39.5 µM
TGI (SNB-19 CNS): 33.1 µM
TGI (SNB-75 CNS): 67.8 µM
TGI (SW-620 colon): 31.3 µM
TGI (T-47D breast): 41 µM
TGI (UACC-257 melanoma): > 100 µM
TGI (UO-31 renal): 29.9 µM

Clc1ccc(C2=CCN3CC=C(c4ccc(Cl)cc4)C23)cc1
TGI (786-0 renal): 24.1 µM
TGI (A549 NSCLC): 28.3 µM
TGI (ACHN renal): 27 µM
TGI (BT-549 breast): 24 µM
TGI (CAKI-1 renal): 27.4 µM
TGI (CCRF-CEM leukemia): 52 µM
TGI (COLO 205 colon): 6.28 µM
TGI (DU-145 prostate): 29.2 µM
TGI (EKVX NSCLC): 31.6 µM
TGI (HCC-2998 colon): 11.3 µM
TGI (HCT-116 colon): 19.2 µM
TGI (HCT-15 colon): 23.5 µM
TGI (HL-60(TB) leukemia): 19.7 µM
TGI (HOP-62 NSCLC): 26.7 µM
TGI (HS 578T breast): 30.3 µM
TGI (HT29 colon): 17.8 µM
TGI (IGROV1 ovarian): 21.9 µM
TGI (K-562 leukemia): 45.2 µM
TGI (KM12 colon): 19.2 µM
TGI (LOX IMVI melanoma): 20.6 µM
TGI (M14 melanoma): 22.6 µM
TGI (MALME-3M melanoma): 27.3 µM
TGI (MCF7 breast): 28.6 µM
TGI (MDA-MB-231 breast): 25 µM
TGI (MDA-MB-435): 22.9 µM
TGI (MDA-N): 22.7 µM
TGI (MOLT-4 leukemia): 28 µM
TGI (NCI-H226 lung): 43.2 µM
TGI (NCI-H23 lung): 26.8 µM
TGI (NCI-H460 lung): 22.4 µM
TGI (NCI-H522 lung): 22.8 µM
TGI (NCI/ADR-RES ovarian): 26.9 µM
TGI (OVCAR-3 ovarian): 25.1 µM
TGI (OVCAR-4 ovarian): 26.1 µM
TGI (OVCAR-5 ovarian): 17 µM
TGI (OVCAR-8 ovarian): 29.4 µM
TGI (RPMI-8226 leukemia): 18.5 µM
TGI (SF-268 CNS): 24.2 µM
TGI (SF-295 CNS): 28.9 µM
TGI (SF-539 CNS): 31.1 µM
TGI (SK-MEL-2 melanoma): 29.6 µM
TGI (SK-MEL-28 melanoma): 28 µM
TGI (SK-MEL-5 melanoma): 13.5 µM
TGI (SN12C renal): 21 µM
TGI (SNB-19 CNS): 31.6 µM
TGI (SR leukemia): 21.9 µM
TGI (SW-620 colon): 26 µM
TGI (T-47D breast): 29.2 µM
TGI (TK-10 renal): 27.5 µM
TGI (U251 CNS): 23.7 µM
TGI (UACC-257 melanoma): 24.2 µM
TGI (UACC-62 melanoma): 21.2 µM
TGI (UO-31 renal): 20 µM

Cc1nc(-c2cc3ccccc3oc2=O)cs1
TGI (786-0 renal): > 100 µM
TGI (A549 NSCLC): > 100 µM
TGI (ACHN renal): > 100 µM
TGI (BT-549 breast): 31 µM
TGI (CAKI-1 renal): > 100 µM
TGI (CCRF-CEM leukemia): > 100 µM
TGI (COLO 205 colon): > 100 µM
TGI (DU-145 prostate): > 100 µM
TGI (EKVX NSCLC): > 100 µM
TGI (HCC-2998 colon): > 100 µM
TGI (HCT-116 colon): > 100 µM
TGI (HCT-15 colon): > 100 µM
TGI (HL-60(TB) leukemia): > 100 µM
TGI (HOP-62 NSCLC): 42 µM
TGI (HOP-92 NSCLC): 53.9 µM
TGI (HS 578T breast): 65.8 µM
TGI (HT29 colon): > 100 µM
TGI (IGROV1 ovarian): > 100 µM
TGI (K-562 leukemia): > 100 µM
TGI (KM12 colon): > 100 µM
TGI (LOX IMVI melanoma): > 100 µM
TGI (M14 melanoma): > 100 µM
TGI (MALME-3M melanoma): > 100 µM
TGI (MCF7 breast): > 100 µM
TGI (MDA-MB-231 breast): 72.6 µM
TGI (MDA-MB-435): > 100 µM
TGI (MDA-N): > 100 µM
TGI (MOLT-4 leukemia): > 100 µM
TGI (NCI-H226 lung): > 100 µM
TGI (NCI-H460 lung): > 100 µM
TGI (NCI-H522 lung): > 100 µM
TGI (NCI/ADR-RES ovarian): > 100 µM
TGI (OVCAR-4 ovarian): > 100 µM
TGI (OVCAR-5 ovarian): > 100 µM
TGI (OVCAR-8 ovarian): > 100 µM
TGI (PC-3 prostate): > 100 µM
TGI (RPMI-8226 leukemia): > 100 µM
TGI (RXF 393 renal): > 100 µM
TGI (SF-268 CNS): > 100 µM
TGI (SF-295 CNS): > 100 µM
TGI (SF-539 CNS): > 100 µM
TGI (SK-MEL-2 melanoma): > 100 µM
TGI (SK-MEL-28 melanoma): > 100 µM
TGI (SK-MEL-5 melanoma): > 100 µM
TGI (SK-OV-3 ovarian): > 100 µM
TGI (SN12C renal): > 100 µM
TGI (SNB-19 CNS): > 100 µM
TGI (SR leukemia): > 100 µM
TGI (SW-620 colon): > 100 µM
TGI (T-47D breast): > 100 µM
TGI (TK-10 renal): > 100 µM
TGI (U251 CNS): > 100 µM
TGI (UACC-257 melanoma): > 100 µM
TGI (UACC-62 melanoma): > 100 µM
TGI (UO-31 renal): > 100 µM
